Test results as given in patent US11713318B2, “Short conjugated oligoelectrolytes and uses thereof” (The Regents Of The University Of California, priority 2018, dated 2023).
Like-named read-outs stand apart in the source and are kept apart here.

Legend:
[1] = system: NIH 3T3 (ATCC CRL-1658) cells; assay: Cytotoxicity, MTT assay; assay type: cell-based; details: Mus musculus, NIH3T3, 24 h
Procedure: (§1) Before removing the frozen cell stocks from liquid nitrogen, culture medium was pre-warmed to 37° C. The frozen tube was then removed from liquid nitrogen and placed into a 37° C. water bath and shaken gently to thaw the cell stock as quickly as possible. A small portion of the pre-warmed culture medium was added to the cell solution. The cell suspension was then centrifuged at 1000 r/min for 3 minutes. The supernatant was discarded and the cells were resuspended in fresh culture medium.
(§2) NIH 3T3 (ATCC CRL-1658) and Hep G2 (ATCC HB-8065) cells were cultured with DMEM+10% FBS in 100 mm dishes. Cells were lifted for subculture or testing when confluence reached ˜60% by treating with 1× trypsin (incubated for 3 min at 37° C.). J774 (ATCC TIB-67) cells were cultured with DMEM+10% FBS in 100 mm dishes. Cells were lifted for subculture or testing when confluence reached ˜80% using a cell scraper. RAW264.7 (ATCC TIB-71) cells were cultured with DMEM+10% heat-inactivated FBS+1% pen/strep in T75 flasks. Cells were lifted for subculture or testing when confluence reached ˜80% using a cell scraper.
(§3) • 1. Cells were lifted and resuspended in culture medium. The number of cells in the cell suspension was determined using an auto-cell counter: 10 μL of the cell suspension was mixed with 10 μL 1× trypan blue (filtered with 0.2 μm PES filter) and the mixture was loaded onto a cell counting slide. Based on the concentration of viable cells, the cell suspension was further diluted to achieve the desired density. • 2. Cells were seeded in 96 well plates by adding 100 μL final cell suspension column-by-column using a multichannel pipette (5000 cells/well for NIH 3T3, 10000 cells/well for Hep G2, J774 and RAW264.7). The outer wells were block with PBS to reduce the effects of evaporation. One column was filled with only culture medium as a blank. Cells were incubated overnight before adding the test articles. • 3. Test articles were dissolved in 1×PBS (or DMSO) to obtain stocks solution. Stock solutions were pre-warmed before use. […] Serial dilutions (2-fold) of the 10× solutions were made in sterile culture tubes by diluting in 1×PBS (8 dilutions to yield 9 test concentrations). 900 μL of culture media was added to each tube to obtain final drug solution containing 10% PBS (or less than 1% DMSO) for each experimental group. • 4. The original culture medium was gently removed from the 96-well plates using a pipette. 100 μL of the test article solutions prepared in Step 3 were added to rows 2-7 of each column to obtain six replicates for each concentration. Plates were then incubated for 24 hours. • 5. MTT solutions were prepared by dissolving commercial MTT powder in 1×PBS to a concentration of 5 mg/mL. After passing through a 0.22 μm PES filter, the MTT solution was divided into 1 mL portions in sterile centrifuge tubes and stored at −20° C. • 6. MTT stock solutions were removed from the freezer to thaw at room temperature. Before adding MTT solutions, cell cultures were visually inspected and imaged using a microscope (to use as a comparison with MTT results). 10 μL of the 5 mg/mL MTT solution was added to each well and the plate was incubated for 4 hours. • 7. After 4 h incubation, the culture medium/MT solution was removed gently using a pipette. 100 μL of DMSO was added to each well using a multichannel pipette. The 96-well plates were analyzed in a plate reader using the following method: shake for 5 minutes, wait for 30 seconds, and measure absorbance at 570 nm. • 8. Data processing: The average of background Abg was calculated from the blank column. All other data was first treated by subtracting Abg. The average A. and standard deviation Se of each experimental group and the average Ac and standard deviation Sc for control group (with pure culture medium incubation) were then calculated. The cell viability was determined as Ae/Ac×100% and corresponding error as Se/Ae×100%. Significant outliers in any experimental or control group were removed. […]

E. coli K12 (ATCC 47076) = assay: MIC broth microdilution method, Table 3; details: Escherichia coli, ATCC47076
[2] = system: S. epidermidis (ATCC 14990); assay: MIC broth microdilution method, Table 3; details: Staphylococcus epidermidis, ATCC14990
[3] = system: Hep G2 (ATCC HB-8065) cells; assay: Cytotoxicity, MTT assay; assay type: cell-based; details: Homo sapiens, HepG2, 24 h
Procedure: as §1, §2, §3

Cytotoxicity, MTT assay = assay type: cell-based; details: human, Hep G2, at the concentration given as IC50 bound, read-out: cell viability at the highest or lowest test concentration
Procedure: as §1, §2, §3

[4] = system: S. aureus ATCC 33591 (MRSA); assay: MIC against resistant strains, Tables 5a-5d; assay type: cell-based; details: Staphylococcus aureus, n = 3
Procedure: (§4) Compounds described herein were evaluated for growth inhibition against a variety of bacterial species, including strains that have developed resistance to common antibacterial treatments, according to the procedure described herein, or by analogous procedures known to those skilled in the art. Resistant bacterial strains used for compound testing include methicillin-resistant S. aureus (MRSA), vancomycin resistant Enterococci (VRE) and various multi-drug resistant (MDR) strains commonly associated with hospital-acquired (nosocomial) infections, including, but not limited to A. baumannii, K. pnuemoniae, and E. cloacae.

[5] = system: K. pneumoniae CDC0010 (MDR); assay: MIC against resistant strains, Tables 5a-5d; assay type: cell-based; details: Klebsiella pneumoniae, n = 3
Procedure: as §4

[6] = system: E. cloacae 1744299 (ESBL); assay: MIC against resistant strains, Tables 5a-5d; assay type: cell-based; details: Enterobacter cloacae, n = 3
Procedure: as §4

[7] = system: P. aeruginosa CDC0248 (MDR); assay: MIC against resistant strains, Tables 5a-5d; assay type: cell-based; details: Pseudomonas aeruginosa, n = 3
Procedure: as §4

[8] = system: K. pneumoniae ATCC BAA-2473 (MDR); assay: MIC against resistant strains, Tables 5a-5d; assay type: cell-based; details: Klebsiella pneumoniae, ATCCBAA2473, n = 3
Procedure: as §4

[9] = system: P. aeruginosa 1674623 (MDR); assay: MIC against resistant strains, Tables 5a-5d; assay type: cell-based; details: Pseudomonas aeruginosa, n = 3
Procedure: as §4

E. faecium 1674620 (VRE) = assay: MIC against resistant strains, Tables 5a-5d; assay type: cell-based; details: Enterococcus faecium, n = 3
Procedure: as §4

[10] = system: A. baumannii CDC0290 (MDR); assay: MIC against resistant strains, Tables 5a-5d; assay type: cell-based; details: Acinetobacter baumannii, n = 3
Procedure: as §4

[11] = system: A. baumannii 1674627 (MDR); assay: MIC against resistant strains, Tables 5a-5d; assay type: cell-based; details: Acinetobacter baumannii, n = 3
Procedure: as §4

[12] = system: S. aureus ATCC BAA-1717 (MRSA); assay: MIC against resistant strains, Tables 5a-5d; assay type: cell-based; details: Staphylococcus aureus, n = 3
Procedure: as §4

E. coli ATCC25922 (WT) = assay: MIC against resistant strains, Tables 5a-5d; assay type: cell-based; details: Escherichia coli, n = 3
Procedure: as §4

[13] = Hep G2, MTT, 24 hours incubation, read-out: IC50

C[N+]1(CCCCCCOc2cc(/C=C/c3cc(OCCCCCC[N+]4(C)CCCCC4)cc(OCCCCCC[N+]4(C)CCCCC4)c3)cc(OCCCCCC[N+]3(C)CCCCC3)c2)CCCCC1.[I-].[I-].[I-].[I-] [Formula N]
IC50 [1]: 124 µg/mL | MIC (E. coli K12 (ATCC 47076)): 128 µg/mL | MIC [2]: 2 µg/mL

C[N+](C)(C)CCCCCCN(CCCCCC[N+](C)(C)C)c1ccc(/C=C/c2ccc(/C=C/c3ccc(N(CCCCCC[N+](C)(C)C)CCCCCC[N+](C)(C)C)cc3)cc2)cc1 [Formula UU]
IC50 [3, 13]: 43.7 µg/mL

CCCCCC[N+](C)(C)CCOc1cc(/C=C/c2ccc(/C=C/c3cc(OCC[N+](C)(C)CCCCCC)cc(OCC[N+](C)(C)CCCCCC)c3)cc2)cc(OCC[N+](C)(C)CCCCCC)c1.[I-].[I-].[I-].[I-] [Formula H]
IC50 [3, 13]: 13 µg/mL | MIC (E. coli K12 (ATCC 47076)): 4 µg/mL

C[N+](C)(C)CCCCCCOc1cc(/C=C/c2cc(OCCCCCC[N+](C)(C)C)cc(OCCCCCC[N+](C)(C)C)c2)cc(OCCCCCC[N+](C)(C)C)c1 [Formula A]
IC50 [3]: > 128 µg/mL | viability at 24 h (Cytotoxicity, MTT assay): 68%

C[N+](C)(C)CCCCCCCCOc1cc(/C=C/c2cc(OCCCCCCCC[N+](C)(C)C)cc(OCCCCCCC[N+](C)(C)C)c2)cc(OCCCCCCC[N+](C)(C)C)c1.[I-].[I-].[I-].[I-] [Formula B]
IC50 [3]: 9.9 µg/mL

CC[N+](C)(C)CCCOc1cc(/C=C/c2ccc(/C=C/c3cc(OCCC[N+](C)(C)CC)cc(OCCC[N+](C)(C)CC)c3)cc2)cc(OCCC[N+](C)(C)CC)c1 [Formula Y]
IC50 [3, 13]: > 1020 µg/mL | viability at 24 h (Cytotoxicity, MTT assay; Hep G2 (ATCC HB-8065) cells): 61% | MIC (E. coli K12 (ATCC 47076)): 32 µg/mL

CC[N+](C)(C)CCCCOc1cc(/C=C/c2ccc(/C=C/c3cc(OCCCC[N+](C)(C)CC)cc(OCCCC[N+](C)(C)CC)c3)cc2)cc(OCCCC[N+](C)(C)CC)c1.[I-].[I-].[I-].[I-] [Formula P]
MIC (E. coli K12 (ATCC 47076)): 16 µg/mL | MIC [4]: 1 µg/mL | MIC [5]: 32 µg/mL | MIC [6]: 8 µg/mL | MIC [7]: > 64 µg/mL | MIC [8]: 16 µg/mL | MIC [9]: > 64 µg/mL | MIC (E. faecium 1674620 (VRE)): 4 µg/mL | MIC [10]: 64 µg/mL | MIC [11]: 64 µg/mL | MIC [12]: 2 µg/mL | MIC (E. coli ATCC25922 (WT)): 8 µg/mL

CC(C)CCC[N+](C)(C)CCCCOc1cc(/C=C/c2ccc(/C=C/c3cc(OCCCC[N+](C)(C)CCCC(C)C)cc(OCCCC[N+](C)(C)CCCC(C)C)c3)cc2)cc(OCCCC[N+](C)(C)CCCC(C)C)c1.[I-].[I-].[I-].[I-] [Formula V]
MIC (E. coli K12 (ATCC 47076)): 4 µg/mL

CCCC[N+](C)(C)CCOc1cc(/C=C/c2ccc(/C=C/c3cc(OCC[N+](C)(C)CCCC)cc(OCC[N+](C)(C)CCCC)c3)cc2)cc(OCC[N+](C)(C)CCCC)c1.[I-].[I-].[I-].[I-] [Formula G]
IC50 [3, 13]: 889 µg/mL | MIC (E. coli K12 (ATCC 47076)): 4 µg/mL | MIC [4]: 1 µg/mL | MIC [5]: 16 µg/mL | MIC [6]: 4 µg/mL | MIC [7]: 64 µg/mL | MIC [8]: 4 µg/mL | MIC [9]: 64 µg/mL | MIC (E. faecium 1674620 (VRE)): 1 µg/mL | MIC [10]: 32 µg/mL | MIC [11]: 32 µg/mL | MIC [12]: 2 µg/mL | MIC (E. coli ATCC25922 (WT)): 1 µg/mL
